Assay results published in ChEMBL document CHEMBL4630906, “Data for DCP probe BAY-3153” (2021).
Active and inactive are the calls of the source.

Columns and labels:
[1] = molecular target: Alpha-1A adrenergic receptor (Homo sapiens) (UniProt P35348); details: Compound concentration 10.0 uM
[2] = molecular target: Histamine H1 receptor (Homo sapiens) (UniProt P35367); details: Compound concentration 10.0 uM
[3] = molecular target: Histamine H2 receptor (Homo sapiens) (UniProt P25021); details: Compound concentration 10.0 uM
[4] = molecular target: T1, Kappa-type opioid receptor (Homo sapiens, UniProt P41145); details: Compound concentration 10.0 uM
T1 sequence (P41145 whole entry): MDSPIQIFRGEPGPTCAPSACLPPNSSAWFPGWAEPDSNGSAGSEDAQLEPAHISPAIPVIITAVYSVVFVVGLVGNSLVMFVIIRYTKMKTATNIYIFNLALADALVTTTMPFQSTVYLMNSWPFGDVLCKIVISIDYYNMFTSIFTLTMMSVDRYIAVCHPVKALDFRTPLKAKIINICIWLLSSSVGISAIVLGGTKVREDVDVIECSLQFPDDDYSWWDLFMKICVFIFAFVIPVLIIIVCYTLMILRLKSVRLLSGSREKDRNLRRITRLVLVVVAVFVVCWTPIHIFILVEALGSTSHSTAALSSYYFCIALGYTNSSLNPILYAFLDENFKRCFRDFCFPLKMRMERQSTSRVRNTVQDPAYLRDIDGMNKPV

[5] = molecular target: Muscarinic acetylcholine receptor M4 (Homo sapiens) (UniProt P08173); details: Compound concentration 10.0 uM
[6] = molecular target: 5-hydroxytryptamine receptor 2A (Homo sapiens) (UniProt P28223); details: Compound concentration 10.0 uM
[7] = molecular target: C-C chemokine receptor type 1 (Homo sapiens, UniProt P32246); experiment: CCR1 cellular Ca2+-flux assay; type: functional
[8] = molecular target: 5-hydroxytryptamine receptor 1B (Homo sapiens) (UniProt P28222); details: Compound concentration 10.0 uM
[9] = molecular target: T2, GABA-A receptor; anion channel (Rattus norvegicus) (UniProt O09028+P15431+P18506+P18508+P19969+P20236+P23574+P23576+P28471+P28473+P30191+P62813+P63079+P63138+Q91ZM7+Q9ES14); details: Compound concentration 10.0 uM
[10] = molecular target: Alpha-2A adrenergic receptor (Homo sapiens) (UniProt P08913); details: Compound concentration 10.0 uM
[11] = molecular target: D(4) dopamine receptor (Homo sapiens) (UniProt P21917); details: Compound concentration 10.0 uM
[12] = molecular target: 5-hydroxytryptamine receptor 5A (Homo sapiens) (UniProt P47898); details: Compound concentration 10.0 uM
Chain of 5-hydroxytryptamine receptor 5A (Homo sapiens) (P47898 whole entry): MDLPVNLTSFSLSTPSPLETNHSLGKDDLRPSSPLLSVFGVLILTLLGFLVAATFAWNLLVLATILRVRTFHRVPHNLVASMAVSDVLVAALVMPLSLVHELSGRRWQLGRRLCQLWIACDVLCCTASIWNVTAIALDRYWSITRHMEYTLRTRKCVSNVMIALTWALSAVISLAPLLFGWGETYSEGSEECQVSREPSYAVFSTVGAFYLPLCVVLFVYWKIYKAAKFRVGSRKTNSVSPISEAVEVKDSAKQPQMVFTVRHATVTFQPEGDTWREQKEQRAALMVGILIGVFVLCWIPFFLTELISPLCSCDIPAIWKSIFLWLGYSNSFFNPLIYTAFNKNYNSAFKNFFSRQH

Rattus norvegicus = species on record: Rattus norvegicus; details: Compound concentration 10.0 uM
[13] = molecular target: Sodium-dependent noradrenaline transporter (Homo sapiens) (UniProt P23975); details: Compound concentration 10.0 uM
[14] = molecular target: Beta-3 adrenergic receptor (Homo sapiens) (UniProt P13945); details: Compound concentration 10.0 uM
[15] = molecular target: Alpha-1B adrenergic receptor (Homo sapiens) (UniProt P35368); details: Compound concentration 10.0 uM
[16] = molecular target: 5-hydroxytryptamine receptor 3A (Homo sapiens) (UniProt P46098); details: Compound concentration 10.0 uM
[17] = molecular target: 5-hydroxytryptamine receptor 2B (Homo sapiens) (UniProt P41595); details: Compound concentration 10.0 uM
[18] = molecular target: T3, Sodium-dependent serotonin transporter (Homo sapiens, UniProt P31645); details: Compound concentration 10.0 uM
Target sequence in this assay (P31645 whole entry, looked up): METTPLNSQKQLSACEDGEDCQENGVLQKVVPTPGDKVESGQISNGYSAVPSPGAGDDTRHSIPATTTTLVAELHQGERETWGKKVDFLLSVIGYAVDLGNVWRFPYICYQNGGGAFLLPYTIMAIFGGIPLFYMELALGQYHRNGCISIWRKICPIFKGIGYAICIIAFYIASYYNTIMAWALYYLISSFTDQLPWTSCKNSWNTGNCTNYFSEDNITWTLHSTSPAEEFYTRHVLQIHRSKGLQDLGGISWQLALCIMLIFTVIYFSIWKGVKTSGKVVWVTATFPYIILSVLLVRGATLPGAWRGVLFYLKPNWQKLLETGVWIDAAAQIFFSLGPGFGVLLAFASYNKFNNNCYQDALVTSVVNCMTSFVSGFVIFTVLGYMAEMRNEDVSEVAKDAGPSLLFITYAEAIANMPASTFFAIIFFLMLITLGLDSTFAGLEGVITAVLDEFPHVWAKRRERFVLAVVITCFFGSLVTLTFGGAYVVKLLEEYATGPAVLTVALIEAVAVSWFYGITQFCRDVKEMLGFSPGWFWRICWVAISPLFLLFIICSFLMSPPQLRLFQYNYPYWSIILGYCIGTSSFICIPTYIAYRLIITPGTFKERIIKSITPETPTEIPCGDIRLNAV

[19] = molecular target: D(1B) dopamine receptor (Homo sapiens) (UniProt P21918); details: Compound concentration 10.0 uM
[20] = molecular target: Muscarinic acetylcholine receptor M2 (Homo sapiens) (UniProt P08172); details: Compound concentration 10.0 uM
[21] = molecular target: 5-hydroxytryptamine receptor 1D (Homo sapiens) (UniProt P28221); details: Compound concentration 10.0 uM
[22] = molecular target: D(3) dopamine receptor (Homo sapiens) (UniProt P35462); details: Compound concentration 10.0 uM
[23] = molecular target: T3, Sodium-dependent serotonin transporter; experiment: GPCRScan assay: inhibition of SERT; set-up: radioligand conc. used [nm] 1.5 – 2.0, parental cells stable HEK
[24] = molecular target: T4, Sigma non-opioid intracellular receptor 1 (Homo sapiens, UniProt Q99720); details: Compound concentration 10.0 uM
T4 sequence (Q99720 whole entry): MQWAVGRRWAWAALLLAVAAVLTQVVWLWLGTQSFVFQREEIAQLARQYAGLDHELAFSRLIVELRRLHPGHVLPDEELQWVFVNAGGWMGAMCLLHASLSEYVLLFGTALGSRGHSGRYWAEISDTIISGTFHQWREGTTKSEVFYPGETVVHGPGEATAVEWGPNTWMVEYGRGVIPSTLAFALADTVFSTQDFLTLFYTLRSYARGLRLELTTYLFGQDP

[25] = molecular target: T5, Sigma intracellular receptor 2 (Homo sapiens, UniProt Q5BJF2); details: Compound concentration 10.0 uM
T5 sequence (Q5BJF2 whole entry): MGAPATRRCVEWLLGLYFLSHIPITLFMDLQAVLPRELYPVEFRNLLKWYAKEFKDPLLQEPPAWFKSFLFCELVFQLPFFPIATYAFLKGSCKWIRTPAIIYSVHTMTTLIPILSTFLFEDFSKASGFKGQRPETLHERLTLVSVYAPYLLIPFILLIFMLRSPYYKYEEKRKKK

[26] = molecular target: 5-hydroxytryptamine receptor 2C (Homo sapiens) (UniProt P28335); details: Compound concentration 10.0 uM
Chain of 5-hydroxytryptamine receptor 2C (Homo sapiens) (P28335 whole entry): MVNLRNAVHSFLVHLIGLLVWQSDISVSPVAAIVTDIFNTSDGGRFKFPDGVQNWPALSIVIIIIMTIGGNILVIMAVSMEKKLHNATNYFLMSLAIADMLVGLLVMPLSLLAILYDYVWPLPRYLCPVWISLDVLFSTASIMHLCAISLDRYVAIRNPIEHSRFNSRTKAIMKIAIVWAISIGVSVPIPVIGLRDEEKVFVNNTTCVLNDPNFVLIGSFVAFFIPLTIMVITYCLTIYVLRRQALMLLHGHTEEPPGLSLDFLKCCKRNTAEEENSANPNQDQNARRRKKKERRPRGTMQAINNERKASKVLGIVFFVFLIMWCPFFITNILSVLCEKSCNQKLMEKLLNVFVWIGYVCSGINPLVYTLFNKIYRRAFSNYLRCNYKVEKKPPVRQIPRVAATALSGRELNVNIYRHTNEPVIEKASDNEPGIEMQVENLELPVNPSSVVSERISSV

[27] = molecular target: Beta-2 adrenergic receptor (Homo sapiens) (UniProt P07550); details: Compound concentration 10.0 uM
[28] = molecular target: 5-hydroxytryptamine receptor 6 (Homo sapiens) (UniProt P50406); details: Compound concentration 10.0 uM
Chain of 5-hydroxytryptamine receptor 6 (Homo sapiens) (P50406 whole entry): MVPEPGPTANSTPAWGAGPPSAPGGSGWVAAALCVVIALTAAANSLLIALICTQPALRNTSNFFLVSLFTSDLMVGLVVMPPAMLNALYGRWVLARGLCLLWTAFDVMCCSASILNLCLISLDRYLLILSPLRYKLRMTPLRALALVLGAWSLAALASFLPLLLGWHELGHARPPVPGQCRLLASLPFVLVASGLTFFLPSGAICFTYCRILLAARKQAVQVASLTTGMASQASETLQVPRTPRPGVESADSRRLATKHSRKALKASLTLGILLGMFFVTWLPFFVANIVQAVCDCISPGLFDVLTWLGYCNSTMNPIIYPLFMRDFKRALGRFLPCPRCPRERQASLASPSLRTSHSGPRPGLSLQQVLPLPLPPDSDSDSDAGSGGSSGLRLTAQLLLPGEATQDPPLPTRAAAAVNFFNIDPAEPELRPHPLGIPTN

[29] = molecular target: Mu-type opioid receptor (Homo sapiens) (UniProt P35372); details: Compound concentration 10.0 uM
[30] = molecular target: Muscarinic acetylcholine receptor M1 (Homo sapiens) (UniProt P11229); details: Compound concentration 10.0 uM
[31] = molecular target: Muscarinic acetylcholine receptor M5 (Homo sapiens) (UniProt P08912); details: Compound concentration 10.0 uM
[32] = molecular target: Histamine H3 receptor (Homo sapiens) (UniProt Q9Y5N1); details: Compound concentration 10.0 uM
[33] = molecular target: Histamine H4 receptor (Homo sapiens) (UniProt Q9H3N8); details: Compound concentration 10.0 uM
[34] = molecular target: Alpha-2C adrenergic receptor (Homo sapiens) (UniProt P18825); details: Compound concentration 10.0 uM
Chain of Alpha-2C adrenergic receptor (Homo sapiens) (P18825 whole entry): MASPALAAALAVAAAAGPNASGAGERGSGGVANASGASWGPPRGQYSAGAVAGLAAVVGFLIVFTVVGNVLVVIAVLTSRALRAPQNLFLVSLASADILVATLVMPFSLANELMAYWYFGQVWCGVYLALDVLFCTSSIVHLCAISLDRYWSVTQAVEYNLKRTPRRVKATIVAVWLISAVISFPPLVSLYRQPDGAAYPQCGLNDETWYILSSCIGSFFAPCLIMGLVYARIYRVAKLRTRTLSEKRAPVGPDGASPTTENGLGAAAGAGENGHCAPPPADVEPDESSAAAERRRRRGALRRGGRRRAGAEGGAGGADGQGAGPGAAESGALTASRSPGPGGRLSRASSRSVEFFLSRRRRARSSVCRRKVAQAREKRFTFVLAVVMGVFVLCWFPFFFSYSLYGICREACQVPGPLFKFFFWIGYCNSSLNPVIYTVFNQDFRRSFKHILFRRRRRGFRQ

[35] = molecular target: Beta-1 adrenergic receptor (Homo sapiens) (UniProt P08588); details: Compound concentration 10.0 uM
[36] = molecular target: T2, GABA-A receptor; anion channel (Rattus norvegicus); details: Compound concentration 10.0 uM; remark: listed apart in the source
[37] = molecular target: T4, Sigma non-opioid intracellular receptor 1; experiment: GPCRScan assay: inhibition of Sigma 1; set-up: radioligand conc. used [nm] 4.0 – 5.0, parental cells HEKT
[38] = molecular target: Alpha-2B adrenergic receptor (Homo sapiens, UniProt P18089); experiment: GPCRScan assay: inhibition of Alpha2B; set-up: radioligand conc. used [nm] 1.5 – 2.0, parental cells HEKT
D(4) dopamine receptor = D(4) dopamine receptor (Homo sapiens, UniProt P21917); experiment: GPCRScan assay: inhibition of D4; set-up: radioligand conc. used [nm] 0.6 – 1.7, parental cells Stable HEK
[39] = molecular target: Alpha-1D adrenergic receptor (Homo sapiens) (UniProt P25100); details: Compound concentration 10.0 uM
[40] = molecular target: T5, Sigma intracellular receptor 2; experiment: GPCRScan assay: inhibition of Sigma 2; set-up: radioligand conc. used [nm] 5.0, parental cells HEKT
[41] = molecular target: Muscarinic acetylcholine receptor M3 (Homo sapiens) (UniProt P20309); details: Compound concentration 10.0 uM
Chain of Muscarinic acetylcholine receptor M3 (Homo sapiens) (P20309 whole entry, looked up): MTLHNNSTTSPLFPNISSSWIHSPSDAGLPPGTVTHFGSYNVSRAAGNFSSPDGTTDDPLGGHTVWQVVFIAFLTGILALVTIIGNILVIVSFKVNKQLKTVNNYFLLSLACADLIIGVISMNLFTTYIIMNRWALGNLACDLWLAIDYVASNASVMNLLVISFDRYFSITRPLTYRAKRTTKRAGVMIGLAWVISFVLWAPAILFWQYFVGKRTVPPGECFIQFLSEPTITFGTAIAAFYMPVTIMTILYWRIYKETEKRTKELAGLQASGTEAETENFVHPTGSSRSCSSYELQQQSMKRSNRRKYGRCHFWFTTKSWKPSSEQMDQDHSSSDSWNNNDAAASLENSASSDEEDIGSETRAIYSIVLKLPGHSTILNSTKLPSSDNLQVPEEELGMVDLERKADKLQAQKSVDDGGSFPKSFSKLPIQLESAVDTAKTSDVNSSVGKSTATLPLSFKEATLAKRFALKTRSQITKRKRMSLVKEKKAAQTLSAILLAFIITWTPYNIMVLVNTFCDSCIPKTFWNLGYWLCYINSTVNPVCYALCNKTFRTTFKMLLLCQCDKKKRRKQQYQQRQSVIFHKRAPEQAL

[42] = molecular target: D(1A) dopamine receptor (Homo sapiens) (UniProt P21728); details: Compound concentration 10.0 uM
[43] = molecular target: Sodium-dependent dopamine transporter (Homo sapiens) (UniProt Q01959); details: Compound concentration 10.0 uM
[44] = GPCRScan assay: inhibition of GABA/PBR; set-up: species or system Rattus norvegicus; radioligand conc. used [nm] 0.3 – 2.0, parental cells brain tissue
[45] = molecular target: 5-hydroxytryptamine receptor 1A (Homo sapiens) (UniProt P08908); details: Compound concentration 10.0 uM
[46] = molecular target: Delta-type opioid receptor (Homo sapiens) (UniProt P41143); details: Compound concentration 10.0 uM
[47] = molecular target: D(2) dopamine receptor (Homo sapiens) (UniProt P14416); details: Compound concentration 10.0 uM
[48] = molecular target: T1, Kappa-type opioid receptor; experiment: GPCRScan assay: inhibition of KOR; set-up: radioligand conc. used [nm] 0.6 – 1.2, parental cells stable HEK

Chain of Alpha-1A adrenergic receptor (Homo sapiens) (P35348 whole entry): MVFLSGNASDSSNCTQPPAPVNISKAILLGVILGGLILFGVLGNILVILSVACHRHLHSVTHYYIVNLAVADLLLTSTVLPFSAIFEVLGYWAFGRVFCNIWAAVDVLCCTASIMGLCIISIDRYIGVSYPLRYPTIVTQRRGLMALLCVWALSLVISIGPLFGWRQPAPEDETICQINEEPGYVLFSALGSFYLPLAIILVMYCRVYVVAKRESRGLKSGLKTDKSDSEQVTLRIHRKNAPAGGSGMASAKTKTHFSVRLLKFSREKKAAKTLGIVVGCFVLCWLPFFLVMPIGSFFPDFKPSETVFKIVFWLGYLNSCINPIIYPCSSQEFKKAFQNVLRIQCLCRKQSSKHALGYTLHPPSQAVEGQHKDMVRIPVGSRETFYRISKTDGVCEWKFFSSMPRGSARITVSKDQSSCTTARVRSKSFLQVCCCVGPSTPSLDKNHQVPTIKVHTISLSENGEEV
Chain of Histamine H1 receptor (Homo sapiens) (P35367 whole entry): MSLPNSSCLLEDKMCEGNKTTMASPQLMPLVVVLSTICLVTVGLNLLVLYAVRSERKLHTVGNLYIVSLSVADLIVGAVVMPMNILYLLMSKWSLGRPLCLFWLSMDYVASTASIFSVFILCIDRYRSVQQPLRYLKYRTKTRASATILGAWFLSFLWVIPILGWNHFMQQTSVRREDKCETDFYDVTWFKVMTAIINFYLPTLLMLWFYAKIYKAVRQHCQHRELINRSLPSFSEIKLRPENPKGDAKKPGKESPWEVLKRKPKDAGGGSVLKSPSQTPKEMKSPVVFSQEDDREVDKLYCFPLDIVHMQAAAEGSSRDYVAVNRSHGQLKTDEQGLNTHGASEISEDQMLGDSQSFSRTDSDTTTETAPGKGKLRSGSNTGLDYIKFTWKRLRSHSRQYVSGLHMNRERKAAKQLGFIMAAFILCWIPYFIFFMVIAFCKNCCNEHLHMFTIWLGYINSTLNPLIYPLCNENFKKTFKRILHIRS

O=C([C@H]1C[C@H](O)CN1c1ccc(Cl)cc1)N1CC2COCC(C1)N2Cc1ccc(Cl)cc1 [BAY-173]
1.2 µM (not active): IC50 [7]
10 µM: Ki [38] | Ki (D(4) dopamine receptor)
active: inhibition [11] 51.5% | inhibition [18] 70.3% | inhibition [24] 69.5% | inhibition [25] 76.5%
1.46 µM: Ki [23]
2.17 µM: Ki [40]
8.25 µM: Ki [37]
inactive: inhibition [1] 7.02% | inhibition [2] 14.3% | inhibition [3] 8.13% | inhibition [4] 18.7% | inhibition [5] -6.12% | inhibition [6] 7.31% | inhibition [8] -6.45% | inhibition [9] 20% | inhibition [10] 11.3% | inhibition [12] -1.82% | inhibition (Rattus norvegicus) -8.33% | inhibition [13] -4.52% | inhibition [14] -9.84% | inhibition [15] 0.94% | inhibition [16] -7.03% | inhibition [17] 14.8% | inhibition [19] 6.84% | inhibition [20] 1.89% | inhibition [21] -7.5% | inhibition [22] 2.75% | inhibition [26] -2.02% | inhibition [27] -7.55% | inhibition [28] 5.38% | inhibition [29] 4.45% | inhibition [30] -3.85% | inhibition [31] -1.65% | inhibition [32] 9.39% | inhibition [33] -3.31% | inhibition [34] 14.4% | inhibition [35] 6.12% | inhibition [36] 0.65% | inhibition [39] -7.34% | inhibition [41] 24.1%

CCOc1cc(N2C3COCC2CN(C(=O)[C@H]2C[C@H](O)CN2c2ccc(Cl)cc2)C3)ccc1Cl [BAY-3153]
1.83 µM: Ki [37]
1.48 µM: Ki [40]
inactive: inhibition [1] 17% | inhibition [2] 11.2% | inhibition [3] 27.7% | inhibition [5] -3.29% | inhibition [6] 6.74% | inhibition [8] -2.86% | inhibition [9] 18.6% | inhibition [11] 15.5% | inhibition [12] 1.7% | inhibition [13] 1.24% | inhibition [14] -5.38% | inhibition [42] 40.3% | inhibition [16] -1.97% | inhibition [17] 10.5% | inhibition [18] 33.4% | inhibition [19] 2.54% | inhibition [20] 8.64% | inhibition [21] -2.08% | inhibition [22] 1.58% | inhibition [26] 4.08% | inhibition [27] -4.63% | inhibition [28] -8.16% | inhibition [29] 5.82% | inhibition [43] 3.92% | inhibition [30] -5.67% | inhibition [31] -4.29% | inhibition [32] 17.3% | inhibition [45] -9.03% | inhibition [34] 2.17% | inhibition [46] 10.3% | inhibition [36] -6.17% | inhibition [47] 7.26% | inhibition [39] 7.09% | inhibition [41] 8.61%
5.74: pKi [44]
3.01 µM: Ki [48]
1.81 µM: Ki [44]
active: inhibition [4] 53.6% | IC50 [7] 0.003 µM | inhibition (Rattus norvegicus) 54.2% | inhibition [24] 85% | inhibition [25] 83.6%
